In PubChem BioAssay (NCI):
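Results reflect a 48-hour exposure of cells in 96-well plates to compound at five concentrations. TGI is the concentration that stops growth completely.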

Key:
Assay in all cases: inhibition of tumour cell growth, NCI panel, 48 h
[1] = test system: UACC-62 melanoma
[2] = test system: SK-MEL-2 melanoma
[3] = test system: A549 NSCLC
[4] = test system: SW-620 colon
[5] = test system: CAKI-1 renal
[6] = test system: OVCAR-3 ovarian
[7] = test system: SF-295 CNS
[8] = test system: COLO 205 colon
[9] = test system: ACHN renal
[10] = test system: UO-31 renal
[11] = test system: NCI-H23 lung
[12] = test system: U251 CNS
[13] = test system: HCC-2998 colon
[14] = test system: 786-0 renal
[15] = test system: HT29 colon
[16] = test system: OVCAR-5 ovarian
[17] = test system: SNB-19 CNS
[18] = test system: NCI-H522 lung
[19] = test system: SK-MEL-5 melanoma
[20] = test system: UACC-257 melanoma
[21] = test system: M19-MEL melanoma
[22] = test system: MOLT-4 leukemia
[23] = test system: NCI-H226 lung
[24] = test system: XF 498 CNS
[25] = test system: SNB-75 CNS
[26] = test system: SF-539 CNS
[27] = test system: RPMI-8226 leukemia
[28] = test system: CCRF-CEM leukemia
[29] = test system: DMS 114 small cell lung
[30] = test system: SR leukemia
[31] = test system: KM20L2 colon
[32] = test system: HOP-62 NSCLC
[33] = test system: HCT-116 colon
[34] = test system: MALME-3M melanoma
[35] = test system: HL-60(TB) leukemia
[36] = test system: LXFL 529 NSCLC
[37] = test system: KM12 colon
[38] = test system: NCI-H460 lung
[39] = test system: SF-268 CNS
[40] = test system: TK-10 renal
[41] = test system: OVCAR-8 ovarian
[42] = test system: M14 melanoma
[43] = test system: IGROV1 ovarian
[44] = test system: HCT-15 colon
[45] = test system: SK-MEL-28 melanoma
[46] = test system: DLD-1 colon
[47] = test system: DMS 273 small cell lung
[48] = test system: OVCAR-4 ovarian
[49] = test system: HOP-92 NSCLC
[50] = test system: K-562 leukemia
[51] = test system: SN12C renal
[52] = test system: EKVX NSCLC
[53] = test system: SK-OV-3 ovarian
[54] = test system: LOX IMVI melanoma
[55] = test system: RXF 393 renal
[56] = test system: SNB-78 CNS
[57] = test system: A498 renal

Measured: TGI

CC[N+](CC)(CC)Cc1cc2ccccc2n1C(=O)OC
> 100 µM: [1] | [2] | [3] | [4] | [5] | [6] | [7] | [8] | [9] | [10] | [11] | [12] | [13] | [14] | [15] | [16] | [17] | [18] | [19] | [20] | [21] | [22] | [23] | [24] | [25] | [26] | [27] | [28] | [29] | [30] | [31] | [32] | [33] | [34] | [35] | [36] | [37] | [38] | [39] | [40] | [41] | [42] | [43] | [44] | [45] | [46] | [47] | [48] | [49] | [50]

Cc1ccc(NC(=O)C(=O)C(C2C(C)CC(=O)C2CC(=O)O)[N+](=O)[O-])cc1 (centres undefined)
> 100 µM: [1] | [2] | [3] | [4] | [5] | [51] | [6] | [52] | [7] | [8] | [9] | [10] | [11] | [12] | [13] | [14] | [53] | [15] | [16] | [17] | [19] | [20] | [22] | [23] | [24] | [25] | [26] | [54] | [27] | [28] | [29] | [30] | [31] | [32] | [33] | [34] | [35] | [36] | [37] | [55] | [56] | [57] | [38] | [39] | [40] | [41] | [42] | [43] | [44] | [45] | [46] | [48] | [49] | [50]
